The test deals with T1, human IDO1/HEK293 cells (Homo sapiens, UniProt P14902).
T1 construct: expressed in transfected cells
Description: HEK Human IDO-1 cell-based IDO inhibition assay (kynurenine production). The note with it: HEK293 cells stably expressing human IDO1, 20 hours incubation, absorbance at 490 nm; read-out: HEK Human IDO-1 Bio Activity (IDO IC50). An outline of the steps:
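Stopped with 0.2% TCA, 50 °C 30 min; supernatant mixed with 0.2% Ehrlich reagent, 30 min RT, kynurenine read as absorbance at 490 nm.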

Data on 16 compounds can be found in patent US20180325889A1, “IMMUNOREGULATORY AGENTS” (FLEXUS BIOSCIENCES, INC., priority 2014, published 2018).

T1 sequence (P14902 whole entry): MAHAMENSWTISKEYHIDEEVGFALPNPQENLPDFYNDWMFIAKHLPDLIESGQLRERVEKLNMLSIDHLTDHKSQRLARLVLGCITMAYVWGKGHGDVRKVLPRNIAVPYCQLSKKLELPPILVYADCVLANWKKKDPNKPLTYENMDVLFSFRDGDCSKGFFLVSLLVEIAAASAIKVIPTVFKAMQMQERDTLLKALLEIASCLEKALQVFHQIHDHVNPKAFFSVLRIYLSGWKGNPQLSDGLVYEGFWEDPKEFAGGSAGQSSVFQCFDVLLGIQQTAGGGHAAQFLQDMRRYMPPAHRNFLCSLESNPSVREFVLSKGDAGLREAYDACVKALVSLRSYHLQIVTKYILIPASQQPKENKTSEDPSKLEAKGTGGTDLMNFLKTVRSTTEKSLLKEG

By IC50 is commonly meant the concentration that inhibits the measured activity by half. For the compound `Fc1ccc2nccc([C@H]3CC[C@H](NCc4ccccc4)CC3)c2c1` [Example 130, trans-N-Benzyl-4-(6-fluoroquinolin-4-yl)cyclohexanamine], the concentration for half-maximal inhibition (IC50) is less than 250 nM.
Turning to `Fc1ccc2nccc([C@H]3CC[C@@H](NCc4ccccc4)CC3)c2c1` [Example 131, cis-N-Benzyl-4-(6-fluoroquinolin-4-yl)cyclohexanamine], the IC50 was less than 250 nM.
Take `O=C(O)Cc1ccc(CN[C@H]2CC[C@H](c3ccnc4ccc(F)cc43)CC2)cc1` [Example 139, 2-(4-(((trans-4-(6-Fluoroquinolin-4-yl)cyclohexyl)amino)methyl)phenyl)acetic acid]: the 50% inhibitory concentration (IC50) was less than 2000 nM.
Consider `O=C(Cc1ccc(Cl)cc1)N[C@H]1CC[C@H](c2ccnc3ccc(F)cc32)CC1` [Example 144, 2-(4-Chlorophenyl)-N-(trans-4-(6-fluoroquinolin-4-yl)cyclohexyl)acetamide], for which the IC50 is less than 2000 nM.
As for `CC(C(=O)N[C@H]1CC[C@H](c2ccnc3ccc(F)cc32)CC1)c1ccc(Cl)cc1` (stereo partly drawn) [Example 145, 2-(4-chlorophenyl)-N-(trans-4-(6-fluoroquinolin-4-yl)cyclohexyl)propanamide], the IC50 was less than 2000 nM.
The figure for `O=C(N[C@H]1CC[C@H](c2ccnc3ccc(F)cc32)CC1)c1ccc(Cl)cc1` [Example 146, 4-chloro-N-(trans-4-(6-fluoroquinolin-4-yl)cyclohexyl)benzamide] is less than 2000 nM.
Consider `O=C(Cc1ccc(Cl)cc1)N[C@H]1CC[C@@H](c2ccnc3ccc(F)cc32)CC1` [Example 147, 2-(4-chlorophenyl)-N-(cis-4-(6-fluoroquinolin-4-yl)cyclohexyl)acetamide], for which the IC50 was less than 2000 nM.
Regarding `CC(C(=O)N[C@H]1CC[C@@H](c2ccnc3ccc(F)cc32)CC1)c1ccc(Cl)cc1` (stereo partly drawn) [Example 148, 2-(4-chlorophenyl)-N-(cis-4-(6-fluoroquinolin-4-yl)cyclohexyl)propanamide], the IC50 is less than 2000 nM.
For the compound `O=C(N[C@H]1CC[C@@H](c2ccnc3ccc(F)cc32)CC1)c1ccc(Cl)cc1` [Example 149, 4-chloro-N-(cis-4-(6-fluoroquinolin-4-yl)cyclohexyl)benzamide], the half-maximal inhibitory concentration (IC50) was less than 250 nM.
For `Cc1cc(C2CCC(C(C)NC(=O)c3ccc(Cl)cc3)CC2)ccn1` (stereo not shown) [Example 157a, 4-Chloro-N-(1-(4-(2-methylpyridin-4-yl)cyclohexyl)ethyl)benzamide], the half-maximal inhibitory concentration (IC50) is less than 250 nM.
With `Cc1c(C2CCC(C(C)NC(=O)c3ccc(Cl)cc3)CC2)ccnc1F` (stereo not shown) [Example 158a, 4-chloro-N-(1-(4-(2-fluoro-3-methylpyridin-4-yl)cyclohexyl)ethyl)benzamide], the IC50 is less than 50 nM.
With `Cc1nccc(C2CCC(C(C)NC(=O)c3ccc(Cl)cc3)CC2)c1C` (stereo not shown) [Example 159a, 4-chloro-N-(1-(4-(2,3-dimcthylpyridin-4-yl)cyclohexyl)ethyl)benzamide], the IC50 was less than 50 nM.
For `Cc1cnccc1C1CCC(C(C)NC(=O)c2ccc(Cl)cc2)CC1` (stereo not shown) [Example 160a, 4-chloro-N-(1-(4-(3-methylpyridin-4-yl)cyclohexyl)ethyl)benzamide], the 50% inhibitory concentration (IC50) is less than 50 nM.
As to `CCOc1ccc(C(=O)N[C@H](C)[C@H]2CC[C@@H](c3ccnc4ccc(F)cc43)CC2)nc1` [Example 163, 5-Ethoxy-N—((R)-1-(cis-4-(6-fluoroquinolin-4-yl)cyclohexyl)ethyl)picolinamide], the half-maximal inhibitory concentration (IC50) was less than 50 nM.
For the compound `C[C@@H](NC(=O)c1ccc(C#N)cc1)[C@H]1CC[C@@H](c2ccnc3ccc(F)cc32)CC1` [Example 176, 4-cyano-N-((R)-1-(cis-4-(6-fluoroquinolin-4-yl)cyclohexyl)ethyl)benzamide], the half-inhibitory concentration (IC50) is less than 50 nM.
On to `COc1ccc(-c2ccc(C(=O)N[C@H](C)[C@H]3CC[C@@H](c4ccnc5ccc(F)cc54)CC3)nc2)cc1F` [Example 178, 5-(3-fluoro-4-methoxyphenyl)-N-((R)-1-(cis-4-(6-fluoroquinolin-4-yl)cyclohexyl)ethyl)picolinamide], for which the half-inhibitory concentration (IC50) is less than 250 nM.
